Values after ≈ are worked out from the molar mass of the structure shown.
Key:
[1] = equivalent diffusion distance through oil-membrane compared to water (calculation); assay type: physicochemical
Text: For this reason, the present inventors chose to use 11 μm thick polycarbonate track-etch membranes instead of thicker hydrophobic membranes such as conventional porous Teflon films (z=10s to 100s of μm). The oil wicks into and remains in the track-etch membrane pores because of its lower interfacial surface tension with the polycarbonate than the water has with polycarbonate. […] The diffusion coefficient of an analyte is dependent on the viscosity of the fluid it is diffusing through. Therefore, an important design element for the oil is to have a low viscosity (diffusion coefficient is inversely proportional to the viscosity of the oil [Walter, A.; Gutknecht, J. Permeability of Small Nonelectrolytes through Lipid Bilayer Membranes. J. Membr. Biol. 1986, 90 (3), 207-217. https://doi.org/10.1007/BF01870127]. Consider an informative example related to the materials used here. The optimal track-etch membranes for this work (see Table 1-below) have an 11 μm membrane thickness and 15.7% porosity, which is equivalent to the analyte having to diffuse through a uniform 70 μm of oil (11 μm/0.157). Now consider castor oil, with a viscosity about 730 times greater than that of water (see Table 2-below). An 11 μm thick castor oil membrane would then be equivalent to a 51,170 μm thick water diffusion distance (11 μum/0.157*730). Alternatively, using a low viscosity oil, such as 1-decanol, the 11 μm thick oil-membrane would have an equivalent thickness of only 945 μm diffusion distance through water (see Table 2).

[2] = cited from earlier work; for LogK (octanol over water): Table 3, ratio of concentration of the oil in octanol and water at equilibrium
[3] = cited from earlier work; for Viscosity at 25° C.: Table 3
[4] = cited from earlier work
[5] = cited from earlier work; remark: listed apart in the source

Row | SMILES | Equivalent water thickness ([1]; pore size 0.1 μm, open area 3.1%, thickness 6 μm) | Equivalent water thickness ([1]; pore size 0.2 μm, open area 9.4%, thickness 10 μm) | Equivalent water thickness ([1]; pore size 0.4 μm, open area 12.6%, thickness 10 μm) | Equivalent water thickness ([1]; pore size 1.0 μm, open area 15.7%, thickness 11 μm) | Equivalent water thickness ([1]; pore size 3.0 μm, open area 14.1%, thickness 9 μm) | Log P ([2]; Table 2) | LogK (octanol over water) [2] | Viscosity ([3]; Table 2) | Viscosity at 25° C. [3] | Vapor pressure at 25° C. [4] | Solubility in water [5]
1 | CCCCCCCCCCO [1-Decanol] | 26,10 μm | 1,434 μm | 1,070 μm | 945 μm | 861 μm | 5 | 4.57 | 12 cP | 12 cP | 0.00851 mmHg | –
2 | CCCCCCCCOCCCCCCCC [Dioctyl ether] | – | – | – | – | – | – | 6.9 | – | 0.224 cP | 0.005 mmHg | –
3 | CCCCCCCCCCCCS [Dodecane thiol] | – | – | – | – | – | – | 6.1 | – | – | 0.000015 mmHg | <0.2 µg/mL
4 | CCCCCCCC/C=C\CCCCCCCC(=O)O [Oleic acid] | – | – | – | – | – | – | 7.64 | – | 27.64 cP | 0.0000005 mmHg | 0.01 µg/mL (≈ 0.0354 µM)
5 | CCCCCCCCCCCCCC [Tetradecane] | – | – | – | – | – | – | 8.19 | – | 2.13 cP | 0.0369 mmHg | 0.00033 µg/mL (≈ 0.00166 µM)
6 | CC1=C(C/C=C(\C)CCC[C@H](C)CCC[C@H](C)CCCC(C)C)C(=O)c2ccccc2C1=O [Vitamin K1] | – | – | – | – | – | – | 10.9 | – | – | – | –
